US20240400553A1, “AMINE BASED MATRIPTASE 2 INHIBITORS AND USES THEREOF” (Disc Medicine, Inc., priority 2023, published 2024)

Biological target: T1, Human Recombinant Matriptase 2 (Homo sapiens, UniProt Q8IU80)
T1 construct: made in house
T1 sequence (Q8IU80 1-811): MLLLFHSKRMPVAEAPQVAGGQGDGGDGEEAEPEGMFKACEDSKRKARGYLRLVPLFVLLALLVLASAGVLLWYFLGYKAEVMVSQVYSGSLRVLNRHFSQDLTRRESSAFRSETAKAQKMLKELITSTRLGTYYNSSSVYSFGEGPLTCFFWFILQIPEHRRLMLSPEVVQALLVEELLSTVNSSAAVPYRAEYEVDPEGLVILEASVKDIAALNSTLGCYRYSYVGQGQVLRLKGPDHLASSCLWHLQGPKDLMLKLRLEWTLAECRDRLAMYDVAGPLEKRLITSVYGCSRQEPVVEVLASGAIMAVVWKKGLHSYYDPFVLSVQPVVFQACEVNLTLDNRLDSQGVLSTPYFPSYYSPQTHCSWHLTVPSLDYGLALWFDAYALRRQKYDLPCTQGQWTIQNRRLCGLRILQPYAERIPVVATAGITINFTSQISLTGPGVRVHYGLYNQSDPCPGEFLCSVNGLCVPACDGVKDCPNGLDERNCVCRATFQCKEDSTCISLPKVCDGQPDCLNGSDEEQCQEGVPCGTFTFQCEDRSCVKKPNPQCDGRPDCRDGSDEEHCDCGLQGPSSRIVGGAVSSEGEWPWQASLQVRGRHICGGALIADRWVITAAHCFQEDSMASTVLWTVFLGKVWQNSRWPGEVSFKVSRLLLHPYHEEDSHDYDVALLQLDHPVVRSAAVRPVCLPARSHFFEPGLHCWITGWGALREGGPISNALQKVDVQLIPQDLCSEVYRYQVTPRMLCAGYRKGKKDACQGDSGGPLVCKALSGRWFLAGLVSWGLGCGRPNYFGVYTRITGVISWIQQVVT
Test: Matriptase 2 inhibition, fluorescence based assay (Method I)
Assay type: biochemical
Conditions: Table A; Ki of Matriptase-2 given as class symbols; read-out: Mat-2 Ki
Method in brief: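 In-house recombinant enzyme (3.5 nM), preincubated 30 min with compound, then Boc-Gln-Ala-Arg-AMC substrate (62 μM) in 50 mM Tris pH 7.5, 150 mM NaCl, 0.01% gelatin, 1% DMSO, 25 °C. Fluorescence (Ex 360/Em 480 nm) read 60 min after substrate; IC50 from variable-slope sigmoidal fit of % inhibition.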

| SMILES | Ki [nM] |
| --- | --- |
| NCc1ccc2cc(C(=O)O)n(Cc3cc(NS(=O)(=O)Cc4ccccc4C(F)(F)F)cc4ccccc34)c2n1 [Compound 225, 6-(aminomethyl)-1-[(3-{[2-(trifluoromethyl)-phenyl]methanesulfon-amido}naphthalen-1-yl)methyl]-1H-pyrrolo-[2,3-b]pyridine-2-car-boxylic acid] | 100 to 500 |
| NCc1ccc2cc(C(=O)O)n(Cc3cc(NS(=O)(=O)CCn4cnnn4)cc4ccccc34)c2n1 [Compound 226, 6-(aminomethyl)-1-({3-[2-(1H-1,2,3,4-tetrazol-1-yl)ethanesulfonamido]-naphthalen-1-yl}methyl)-1H-pyrrolo[2,3-b]pyr-idine-2-carboxylic acid] | 100 to 500 |
| NCc1ccc2cc(C(=O)O)n(Cc3cc(NS(=O)(=O)CCn4ccnn4)cc4ccccc34)c2n1 [Compound 228, 6-(aminomethyl)-1-({3-[2-(1H-1,2,3-triazol-1-yl)ethanesulfonamido]-naphthalen-1-yl}meth-yl)-1H-pyrrolo[2,3-b]-pyridine-2-carboxylic acid] | 100 to 500 |
| NCc1ccc2cc(C(=O)O)n(Cc3cc(NS(=O)(=O)CCCN4CCCC4)cc4ccccc34)c2n1 [Compound 232, 6-(aminomethyl)-1-({3-[3-(pyrrolidin-1-yl)-propanesulfonamido]-naphthalen-1-yl}methyl)-1H-pyrrolo[2,3-b]pyr-idine-2-carboxylic acid] | 100 to 500 |
| COCCN1CCN(CCS(=O)(=O)Nc2cc(Cn3c(C(=O)O)cc4ccc(CN)nc43)c3ccccc3c2)CC1 [Compound 234, 6-(aminomethyl)-1-[(3-{2-[4-(2-methoxyethyl)-piperazin-1-yl]ethane-sulfonamido}naphthalen-1-yl)methyl]-1H-pyr-rolo[2,3-b]pyridine-2-carboxylic acid] | 100 to 500 |
| CN1CCC[C@H]1CCS(=O)(=O)Nc1cc(Cn2c(C(=O)O)cc3ccc(CN)nc32)c2ccccc2c1 [Compound 235, 6-(aminomethyl)-1-[(3-{2-[(2S)-1-methylpyr-rolidin-2-yl]ethanesul-fonamido}naphthalen-1-yl)methyl]-1H-pyrrolo-[2,3-b]pyridine-2-car-boxylic acid] | 100 to 500 |
| CN1CCC(CS(=O)(=O)Nc2cc(Cn3c(C(=O)O)cc4ccc(CN)nc43)c3ccccc3c2)CC1 [Compound 237, 6-(aminomethyl)-1-({3-[(1-methylpiperidin-4-yl)methanesulfonamido]-naphthalen-1-yl}methyl)-1H-pyrrolo[2,3-b]pyr-idine-2-carboxylic acid] | 100 to 500 |
| NCc1ccc2cc(C(=O)O)n(Cc3cc(NS(=O)(=O)C4CCOCC4)cc4ccccc34)c2n1 [Compound 240, 6-(aminomethyl)-1-{[3-(oxane-4-sulfonamido)-naphthalen-1-yl]methyl}-1H-pyrrolo[2,3-b]pyr-idine-2-carboxylic acid] | 100 to 500 |
| CCOC(=O)c1cc2ccc(CN)nc2n1Cc1cc(NS(=O)(=O)CC2CCNCC2)cc2ccccc12 [Compound 241, ethyl 6-(aminomethyl)-1-({3-[(piperidin-4-yl)-methanesulfonamido]-naphthalen-1-yl}methyl)-1H-pyrrolo[2,3-b]pyr-idine-2-carboxylate] | 100 to 500 |
| Cc1conc1CS(=O)(=O)Nc1cc(Cn2c(C(=O)O)cc3ccc(CN)nc32)c2ccccc2c1 [Compound 243, 6-(aminomethyl)-1-({3-[(4-methyl-1,2-oxazol-3-yl)methanesulfonamido]-naphthalen-1-yl}methyl)-1H-pyrrolo[2,3-b]pyr-idine-2-carboxylic acid] | 100 to 500 |
| COc1ccc(Cl)cc1CS(=O)(=O)Nc1cc(Cn2c(C(=O)O)cc3ccc(CN)nc32)c2ccccc2c1 [Compound 247, 6-(aminomethyl)-1-({3-[(5-chloro-2-methoxy-phenyl)methanesulfon-amido]naphthalen-1-yl}-methyl)-1H-pyrrolo[2,3-b]pyridine-2-carboxylic acid] | 500 to 3000 |
| CN1CCC(COC(=O)c2cc3ccc(CN)nc3n2Cc2cc(NS(=O)(=O)CC34CC(F)(C3)C4)cc3ccccc23)CC1 [Compound 248, (1-methylpiperidin-4-yl)-methyl 6-(aminomethyl)-1-{[3-({3-fluorobicyclo-[1.1.1]pentan-1-yl}-methanesulfonamido)-naphthalen-1-yl]methyl}-1H-pyrrolo[2,3-b]pyr-idine-2-carboxylate] | 500 to 3000 |
| CN1CCC(COC(=O)c2cc3ccc(CN)nc3n2Cc2cc(NS(=O)(=O)CC3CCNCC3)cc3ccccc23)CC1 [Compound 249, (1-methylpiperidin-4-yl)methyl 6-(amino-methyl)-1-({3-{(piperi-din-4-yl)methanesul-fonamido]naphthalen-1-yl}methyl)-1H-pyr-rolo[2,3-b]pyridine-2-carboxylate] | 500 to 3000 |

Next, values leading:

| Ki [nM] | SMILES |
| --- | --- |
| 100 to 500 | NCc1ccc2cc(C(=O)O)n(Cc3cc(NS(=O)(=O)Cc4ccccc4F)cc4ccccc34)c2n1 [Compound 227, 6-(aminomethyl)-1-({3-[(2-fluorophenyl)meth-anesulfonamido]naph-thalen-1-yl}methyl)-1H-pyrrolo[2,3-b]pyridine-2-carboxylic acid] |
| 100 to 500 | NCc1ccc2cc(C(=O)O)n(Cc3cc(NS(=O)(=O)Cc4cccc(F)c4)cc4ccccc34)c2n1 [Compound 229, 6-(aminomethyl)-1-({3-[(3-fluorophenyl)meth-anesulfonamido]naph-thalen-1-yl}methyl)-1H-pyrrolo[2,3-b]pyridine-2-carboxylic acid] |
| 100 to 500 | NCc1ccc2cc(C(=O)O)n(Cc3cc(NS(=O)(=O)CCc4ccccc4)cc4ccccc34)c2n1 [Compound 230, 6-(aminomethyl)-1-{[3-(2-phenylethanesulfon-amido)naphthalen-1-yl]-methyl}-1H-pyrrolo[2,3-b]pyridine-2-carboxylic acid] |
| 100 to 500 | NCc1ccc2cc(C(=O)O)n(Cc3cc(NS(=O)(=O)Cc4cncnc4)cc4ccccc34)c2n1 [Compound 231, 6-(aminomethyl)-1-({3-[(pyrimidin-5-yl)methane-sulfonamido]naphthalen-1-yl}methyl)-1H-pyr-rolo[2,3-b]pyridine-2-carboxylic acid] |
| 100 to 500 | NCc1ccc2cc(C(=O)O)n(Cc3cc(NS(=O)(=O)Cc4ccno4)cc4ccccc34)c2n1 [Compound 233, 6-(aminomethyl)-1-({3-[(1,2-oxazol-5-yl)-methanesulfonamido]-naphthalen-1-yl}methyl)-1H-pyrrolo[2,3-b]pyr-idine-2-carboxylic acid] |
| 100 to 500 | NCc1ccc2cc(C(=O)O)n(Cc3cc(NS(=O)(=O)Cc4ccco4)cc4ccccc34)c2n1 [Compound 236, 6-(aminomethyl)-1-({3-[(furan-2-yl)methane-sulfonamido]naphthalen-1-yl}methyl)-1H-pyr-rolo[2,3-b]pyridine-2-carboxylic acid] |
| 100 to 500 | Cc1cccc(CS(=O)(=O)Nc2cc(Cn3c(C(=O)O)cc4ccc(CN)nc43)c3ccccc3c2)c1 [Compound 238, 6-(aminomethyl)-1-({3-[(3-methylphenyl)meth-anesulfonamido]naph-thalen-1-yl}methyl)-1H-pyrrolo[2,3-b]pyridine-2-carboxylic acid] |
| 100 to 500 | NCc1ccc2cc(C(=O)O)n(Cc3cc(NS(=O)(=O)Cc4cscn4)cc4ccccc34)c2n1 [Compound 239, 6-(aminomethyl)-1-({3-[(1,3-thiazol-4-yl)meth-anesulfonamido]naph-thalen-1-yl}methyl)-1H-pyrrolo[2,3-b]pyridine-2-carboxylic acid] |
| 100 to 500 | NCc1ccc2cc(C(=O)O)n(Cc3cc(NS(=O)(=O)Cc4cccnc4)cc4ccccc34)c2n1 [Compound 242, 6-(aminomethyl)-1-({3-[(pyridin-3-yl)methane-sulfonamido]naphthalen-1-yl}methyl)-1H-pyr-rolo[2,3-b]pyridine-2-carboxylic acid] |
| 100 to 500 | Cn1cc(CS(=O)(=O)Nc2cc(Cn3c(C(=O)O)cc4ccc(CN)nc43)c3ccccc3c2)cn1 [Compound 244, 6-(aminomethyl)-1-({3-[(1-methyl-1H-pyrazol-4-yl)methanesulfonamido]-naphthalen-1-yl}methyl)-1H-pyrrolo[2,3-b]pyr-idine-2-carboxylic acid] |
| 100 to 500 | NCc1ccc2cc(C(=O)O)n(Cc3cc(NS(=O)(=O)Cc4ccncc4)cc4ccccc34)c2n1 [Compound 245, 6-(aminomethyl)-1-({3-[(pyridin-4-yl)methane-sulfonamido]naphthalen-1-yl}methyl)-1H-pyr-rolo[2,3-b]pyridine-2-carboxylic acid] |
| 100 to 500 | NCc1ccc2cc(C(=O)O)n(Cc3cc(NS(=O)(=O)Cc4c(F)cccc4F)cc4ccccc34)c2n1 [Compound 246, 6-(aminomethyl)-1-({3-[(2,6-difluorophenyl)-methanesulfonamido]-naphthalen-1-yl}meth-yl)-1H-pyrrolo[2,3-b]-pyridine-2-carboxylic acid] |
